≈ marks a conversion by molar mass, not a printed value. Residues, ends and D or L forms follow the SMILES beside them. No end group written: not given here.
Experiments:
Format in all cases: cell-based
Conditions in all cases: broth microdilution in MHB, peptide 128 down to 0.5 µg/mL, 20–24 h at 37 °C, no visible growth; range of three independent experiments
[1] = tested on: Escherichia coli ATCC 25922
Experimental: (§1) Bacteria were grown overnight at 37 °C in Mueller-Hinton Broth (MHB; Sigma-Aldrich, St. Louis. MO, USA) in a shaking incubator and aliquoted into cryovials with a 50% glycerol solution in a 1:1 ratio. No additives were added to the MHB during the growth of bacterial isolates. Glycerol stocks were stored at −80 °C.
(§2) The antimicrobial activity of the putative AMPs was determined by a broth microdilution assay as described by the Clinical and Laboratory Standards Institute, with the published adaptations for testing of cationic peptides. Escherichia coli 25922 and Staphylococcus aureus 29213 isolates were purchased from the American Type Culture Collection (ATCC; Manassas, VA, USA). A human clinical isolate of Salmonella enterica serovar Enteritidis was provided by the BC Centre for Disease Control. Bacteria from stocks stored at −80 °C were streaked onto nonselective Columbia blood agar with 5% sheep blood (Oxoid) and incubated overnight at 37 °C. Next, 2–4 colonies were streaked onto a new agar plate to ensure uniform health of colonies used in the broth microdilution assay. Isolated colonies were suspended in MHB and the optical density was measured with a spectrophotometer to create an initial inoculum concentration of approximately 1 × 10^8 cfu/mL. The inoculum was diluted 1:250 to a final concentration of 2–8 × 10^5 cfu/mL, which was confirmed by performing a Total Viability Count (TVC). The TVC consisted of plating a 1:1000 dilution of the final inoculum on nonselective media and was also used to confirm the health and purity of the inoculum in each trial.
(§3) Lyophilized 80 µg peptide aliquots synthesized by GenScript (Piscataway, NJ, USA) were resuspended to 1.28 mg/mL with UltraPure water (Thermo Fisher Scientific, Waltham, MA, USA) and serially diluted in polypropylene 96-well microtiter plates (Greiner Bio-One #650261, Kremsmünster, Austria) from 128 down to 0.5 µg/mL. Two columns per plate were reserved for growth and sterility controls. Inoculum was added to the wells containing the peptide and the growth control. Plates were incubated for 20–24 h at 37 °C. The minimum inhibitory concentration (MIC) was determined as the lowest peptide concentration where there was no visible bacterial growth.

[2] = tested on: Salmonella enterica serovar Enteritidis (human clinical isolate)
Experimental: as §1, §2, §3

[3] = tested on: Staphylococcus aureus ATCC 29213
Experimental: as §1, §2, §3

Row | Compound | MIC, E. coli ATCC 25922 [1] | MIC, Salmonella Enteritidis [2] | MIC, S. aureus ATCC 29213 [3]
1 | CC(C)C[C@H](NC(=O)CNC(=O)[C@@H](NC(=O)[C@@H](NC(=O)CNC(=O)[C@H](CS)NC(=O)[C@H](CC(C)C)NC(=O)[C@@H](NC(=O)[C@H](CCCCN)NC(=O)[C@H](CCCCN)NC(=O)CNC(=O)[C@@H](NC(=O)CNC(=O)[C@H](CC(C)C)NC(=O)[C@@H](NC(=O)[C@H](CCCCN)NC(=O)CNC(=O)[C@H](CC(C)C)NC(=O)[C@H](CC(C)C)NC(=O)CN)C(C)C)C(C)C)C(C)C)C(C)C)[C@@H](C)O)C(=O)N[C@@H](CS)C(=O)O [PeNi1] (H-GLLGKVLGVGKKVLCGVTGLC-OH) | 4 µg/mL (≈ 1.99 µM) | 8 to 16 µg/mL | 4 µg/mL (≈ 1.99 µM)
2 | GIFSLIKGAAKVVAKGLGK [RaOm3] | 8 to 16 µg/mL | 32 to 64 µg/mL | 64 µg/mL
3 | GSSSRSCRCIRLSRLSSKRT [NaVi4] | > 128 µg/mL | > 128 µg/mL | > 128 µg/mL
4 | CC[C@H](C)[C@H](NC(=O)[C@H](CCCCN)NC(=O)CNC(=O)[C@H](CC(C)C)NC(=O)[C@H](CC(C)C)NC(=O)CN)C(=O)N[C@@H](CC(C)C)C(=O)NCC(=O)N[C@H](C(=O)NCC(=O)N[C@@H](CCCCN)C(=O)N[C@@H](CCCCN)C(=O)N[C@H](C(=O)N[C@@H](CC(C)C)C(=O)N[C@@H](CS)C(=O)NCC(=O)N[C@H](C(=O)N[C@@H](CO)C(=O)NCC(=O)N[C@@H](CC(C)C)C(=O)N[C@@H](CS)C(=O)O)C(C)C)C(C)C)C(C)C [PeNi9] (H-GLLGKILGVGKKVLCGVSGLC-OH) | 2 to 4 µg/mL | 8 to 16 µg/mL | 4 to 8 µg/mL
5 | GAHKEVFKRDTALTKEAAKKAKK [ApMe2] | > 128 µg/mL | > 128 µg/mL | > 128 µg/mL
6 | GLLGKVLGVGKKVLC [PeNi4, rAMPage-discovered AMP, Pelophylax nigromaculatus] | 8 to 16 µg/mL | 4 to 8 µg/mL | 4 to 8 µg/mL
7 | CC(C)C[C@H](NC(=O)CNC(=O)[C@H](CO)NC(=O)[C@@H](NC(=O)[C@@H](NC(=O)[C@H](CS)NC(=O)[C@H](CC(C)C)NC(=O)[C@@H](NC(=O)[C@H](CCCCN)NC(=O)[C@H](CCCCN)NC(=O)CNC(=O)[C@@H](NC(=O)CNC(=O)[C@H](CC(C)C)NC(=O)[C@@H](NC(=O)[C@H](CCCCN)NC(=O)CNC(=O)[C@H](CC(C)C)NC(=O)[C@H](CC(C)C)NC(=O)CN)C(C)C)C(C)C)C(C)C)C(C)C)C(C)C)C(=O)N[C@@H](CS)C(=O)O [PeNi2] (H-GLLGKVLGVGKKVLCVVSGLC-OH; N-terminus and C-terminus assumed) | 4 µg/mL (≈ 1.96 µM) | 16 to 32 µg/mL | 4 µg/mL (≈ 1.96 µM)
8 | CC[C@H](C)[C@H](NC(=O)[C@H](CCCCN)NC(=O)[C@H](CS)NC(=O)[C@H](CCCCN)NC(=O)[C@H](CC(C)C)NC(=O)[C@H](CC(N)=O)NC(=O)[C@H](Cc1ccc(O)cc1)NC(=O)[C@H](CC(C)C)NC(=O)[C@H](CC(C)C)NC(=O)[C@@H](NC(=O)[C@@H](NC(=O)[C@H](C)NC(=O)[C@@H](NC(=O)[C@H](CC(N)=O)NC(=O)[C@H](CCCCN)NC(=O)[C@H](C)NC(=O)[C@@H](NC(=O)[C@H](CC(N)=O)NC(=O)[C@H](CCCCN)NC(=O)[C@H](C)NC(=O)[C@@H](NC(=O)[C@H](CC(=O)O)NC(=O)[C@H](CCSC)NC(=O)[C@H](Cc1ccccc1)NC(=O)CN)[C@@H](C)O)C(C)C)C(C)C)C(C)C)[C@@H](C)O)C(=O)N[C@H](C(=O)N[C@@H](CCCCN)C(=O)N[C@@H](C)C(=O)N[C@@H](CS)C(=O)O)[C@@H](C)O [OdMa12] (H-GFMDTAKNVAKNVAVTLLYNLKCKITKAC-OH; N-terminus and C-terminus assumed) | 4 µg/mL (≈ 1.27 µM) | 64 µg/mL (≈ 20.3 µM) | 64 to 128 µg/mL
9 | CC[C@H](C)[C@H](NC(=O)CN)C(=O)N[C@@H](Cc1ccccc1)C(=O)NCC(=O)NCC(=O)N[C@@H](Cc1c[nH]cn1)C(=O)N[C@@H](CC(C)C)C(=O)N[C@@H](CCCCN)C(=O)N[C@H](C(=O)NCC(=O)N[C@@H](CCCCN)C(=O)N[C@@H](CCCCN)C(=O)N[C@H](C(=O)N[C@@H](C)C(=O)N[C@@H](CS)C(=O)NCC(=O)N[C@@H](CC(C)C)C(=O)N[C@@H](CO)C(=O)NCC(=O)N[C@@H](CC(C)C)C(=O)N[C@@H](CS)C(=O)O)[C@@H](C)CC)C(C)C [OdTo2] (H-GIFGGHLKVGKKIACGLSGLC-OH; N-terminus and C-terminus assumed) | 32 µg/mL (≈ 15.5 µM) | > 128 µg/mL | > 128 µg/mL
10 | WALRWKTR [PaVi1] | > 128 µg/mL | > 128 µg/mL | > 128 µg/mL
11 | CC[C@H](C)[C@H](NC(=O)[C@@H](N)C(C)C)C(=O)N1CCC[C@H]1C(=O)N[C@@H](Cc1ccccc1)C(=O)N[C@H](C(=O)N[C@@H](C)C(=O)N[C@@H](CO)C(=O)N[C@H](C(=O)N[C@@H](C)C(=O)N[C@@H](C)C(=O)N[C@@H](CCC(=O)O)C(=O)N[C@@H](CCSC)C(=O)N[C@@H](CCSC)C(=O)N[C@@H](Cc1c[nH]cn1)C(=O)N[C@@H](Cc1c[nH]cn1)C(=O)N[C@H](C(=O)N[C@@H](Cc1ccc(O)cc1)C(=O)N[C@@H](CS)C(=O)N[C@@H](C)C(=O)N[C@@H](C)C(=O)N[C@@H](CO)C(=O)N[C@@H](CCCCN)C(=O)N[C@@H](CCCNC(=N)N)C(=O)N[C@@H](CS)C(=O)N[C@@H](CCCCN)C(=O)N[C@@H](CC(N)=O)C(=O)O)C(C)C)C(C)C)C(C)C [PeNi7] (H-VIPFVASVAAEMMHHVYCAASKRCKN-OH; N-terminus and C-terminus assumed) | 128 µg/mL (≈ 44.7 µM) | > 128 µg/mL | > 128 µg/mL
12 | GLVGKLVKGGLKLIGHVANG [RaSi1] | 8 to 16 µg/mL | > 128 µg/mL | 64 to 128 µg/mL
13 | CC[C@H](C)[C@H](NC(=O)CN)C(=O)N[C@@H](CC(C)C)C(=O)N[C@H](C(=O)N[C@@H](CC(=O)O)C(=O)N[C@H](C(=O)N[C@@H](CC(C)C)C(=O)N[C@@H](CCCCN)C(=O)NCC(=O)N[C@@H](C)C(=O)N[C@@H](C)C(=O)N[C@@H](CCCCN)C(=O)N[C@@H](CC(N)=O)C(=O)N[C@H](C(=O)N[C@@H](C)C(=O)NCC(=O)N[C@H](C(=O)N[C@@H](CC(C)C)C(=O)N[C@@H](CC(C)C)C(=O)N[C@@H](CC(=O)O)C(=O)N[C@@H](CCCCN)C(=O)N[C@@H](CC(C)C)C(=O)N[C@@H](CCCCN)C(=O)N[C@@H](CS)C(=O)N[C@@H](CCCCN)C(=O)N[C@H](C(=O)N[C@H](C(=O)NCC(=O)NCC(=O)N[C@@H](CS)C(=O)O)[C@@H](C)O)[C@@H](C)CC)C(C)C)C(C)C)[C@@H](C)O)[C@@H](C)O [PeNi11] (H-GILTDTLKGAAKNVAGVLLDKLKCKITGGC-OH; N-terminus and C-terminus assumed) | 8 to 16 µg/mL | 128 µg/mL (≈ 42.6 µM) | 64 µg/mL (≈ 21.3 µM)
14 | AFVRILCYCCPRRIKRR [TeRu2, rAMPage-discovered AMP, Temnothorax rugatulus] | 64 to 128 µg/mL | > 128 µg/mL | 128 µg/mL
15 | ISIKEALEHSFFHTVPRKWCKKH [PoSn1] | 64 µg/mL | > 128 µg/mL | > 128 µg/mL
16 | GIFSLIKGAAK [LeBo1] | > 128 µg/mL | > 128 µg/mL | > 128 µg/mL
17 | FILHAKKTRSAK [VeSi1] | > 128 µg/mL | > 128 µg/mL | > 128 µg/mL
18 | RKIIAVSVHKLCRVKR [BoUs1] | 64 to 128 µg/mL | 64 µg/mL | > 128 µg/mL
19 | KEERGAPKGCWTKSYPPKPCSGKR [PeNi13] | > 128 µg/mL | > 128 µg/mL | > 128 µg/mL
20 | RRAIFASIRGYLGLRKR [MyGu1] | 4 µg/mL | 8 to 16 µg/mL | 128 µg/mL
21 | GILRSLGWIQMPRSRRRHR [AnFl2] | 16 to 32 µg/mL | 128 µg/mL | > 128 µg/mL
